Source: paper PMC10955399 (RSC Advances, 2024)

How the values were obtained:
[1] = system: Bacillus cereus (MTCC2128); test: Agar well diffusion antibacterial activity; assay type: cell-based; settings: for Zone of inhibition, Bacillus cereus: 100 μl, compound 1 mg mL^−1, radius of inhibition zone; for inhibitory activity against Bacillus cereus (in words): 1 mg mL^−1
[2] = system: Escherichia coli (MTCC2412); test: Agar well diffusion antibacterial activity; assay type: cell-based; settings: for Zone of inhibition, Escherichia coli: compound 1 mg mL^−1, radius of inhibition zone
Enterococcus faecium = settings: at the concentration tested; cited from earlier work
Acinetobacter baumannii = settings: cited from earlier work
Staphylococcus = settings: at the concentration tested; cited from earlier work

Nc1ncnc2c1cnn2C=C1CC1(CO)CO [10a (E&Z), (2-((4-amino-1H-pyrazolo[3,4-d]pyrimidin-1-yl)methylene)cyclopropane-1,1-diyl) dimethanol]
Zone of inhibition, Bacillus cereus ([1]; listed as 10a): 2.2 ± 0.25 mm
Zone of inhibition, Escherichia coli ([2]; 100 μl, listed as 10a): 1.2 ± 0.15 mm

Nc1ncnc2c1cnn2C=C1CC1(CO)CO [10a (E-Isomer), (2-((4-amino-1H-pyrazolo[3,4-d]pyrimidin-1-yl)methylene)cyclopropane-1,1-diyl) dimethanol]
inhibitory activity against Bacillus cereus (in words) [1]: showed inhibitory activity
zone of inhibition against Escherichia coli (in words) ([2]; 1 mg mL^−1): zone of inhibition was observed
Zone of inhibition, Escherichia coli ([2]; 75 μl): 0.9 ± 0.05 mm

Nc1ncnc2c1cnn2C=C1CC1(CO)CO [10a (Z-Isomer), (2-((4-amino-1H-pyrazolo[3,4-d]pyrimidin-1-yl)methylene)cyclopropane-1,1-diyl) dimethanol]
Zone of inhibition, Escherichia coli ([2]; 75 μl): 0.9 ± 0.05 mm
Zone of inhibition, Escherichia coli ([2]; 100 μl): 1.2 ± 0.15 mm

Nc1ncnc2c1c(I)nn2C=C1CC1(CO)CO [10b (E&Z), (2-((4-amino-3-iodo-1H-pyrazolo[3,4-d]pyrimidin-1-yl)methylene)cyclopropane-1,1-diyl)dimethanol]
inhibitory activity against Bacillus cereus (in words) [1]: showed inhibitory activity
Zone of inhibition, Bacillus cereus ([1]; listed as 10b): 1.4 ± 0.1 mm

Nc1ncnc2c1c(I)nn2C=C1CC1(CO)CO [10b (Z-Isomer), (2-((4-amino-3-iodo-1H-pyrazolo[3,4-d]pyrimidin-1-yl)methylene)cyclopropane-1,1-diyl)dimethanol]
Zone of inhibition, Bacillus cereus [1]: 2.2 ± 0.25 mm

Nc1ncnc2c1c(-c1ccc(Oc3ccccc3)cc1)nn2C=C1CC1(CO)CO [10c (E&Z), (2-((4-amino-3-(4-phenoxyphenyl)-1H-pyrazolo[3,4-d]pyrimidin-1-yl)methylene)cyclopropane-1,1-diyl) dimethanol]
inhibitory activity against Bacillus cereus (in words) [1]: showed inhibitory activity

CC(C)=CCCC1(C)C(CC=C(C)C)CC23CCC(C)(C)OC2=C(C(=O)c2ccc(O)c(O)c2)C(=O)C1(CC=C(C)C)C3=O (centres unmarked) [schomburgkianone I]
inhibitory effect on Enterococcus faecium (in words) (Enterococcus faecium): exhibited inhibitory effects
activity against Acinetobacter baumannii (in words) (Acinetobacter baumannii): no activity
inhibitory effect on Staphylococcus (in words) (Staphylococcus): exhibited inhibitory effects
